Consider 1 molecule from patent US20090099141A1, “COMPOSITIONS AND METHODS FOR TREATING VITAMIN D DEFICIENCIES” (priority 2005, published 2009).

A short description of the test: Serum level of 25(OH)D in an adult human after oral 250 μg (10,000 IU) vitamin D3 tablets (Nichols method). It is filed as in vivo. Here is the method:
During the winter months an adult living in a northern region of the United States receiving no vitamin D supplements other than through their normal diet is found to have a serum level of 25(OH)D of about 25 nmole/L. The person is provided with four (4) blister packs, each pack containing four (4) 250 μg (10,000 IU) of vitamin D3. The blister pack has instructions to take one tablet by mouth once a week. The person is instructed to take all of the tablets according to instructions provided on the pack. Blood samples are drawn each week just before a tablet is taken and the serum levels of 25(OH)D are determined. Serum levels of 25(OH)D can be determined by the Nichols method (catalog no. 40-2135; Nichols Institute Diagnostics). Within approximately two months, serum levels increase by about 15 to about 20 nmole/L to a level of at least about 40 nmole/L.
During the winter months an adult living in a northern region of the United States receiving no vitamin D supplements other than through their normal diet is found to have a serum level of 25(OH)D of about 18 nmole/L. The person is provided with four (4) blister packs, each pack having one tablet for each day of the month [about thirty (30) tablets], and each tablet containing 250 μg (10,000 IU) of vitamin D3. The blister pack has instructions to take one tablet by mouth once a day, noting on the pack, where indicated, the date and time each tablet is taken. The person is instructed to take all of the tablets according to instructions provided on the pack. Blood samples are drawn after one (1) week and each week thereafter at approximately the same time and the serum levels of 25(OH)D are determined. Serum levels of 25(OH)D can be determined by the Nichols method (catalog no. 40-2135; Nichols Institute Diagnostics). Within approximately two months, serum levels increase by at least 100 nmole/L to a level of at least about 120 nmole/L and, within about 4 months, increase by at least about 180 nmole/L to a level of at least about 200 nmole/L.
During the winter months an adult living in a northern region of the United States receiving no vitamin D supplements other than through their normal diet is found to have a serum level of 25(OH)D of about 35 nmole/L. The person is provided with four (4) blister packs, each pack containing fifteen (15) 250 μg (10,000 IU) of vitamin D3. The blister pack has instructions to take one tablet by mouth once every other day, noting on the pack, where indicated, the date and time each tablet is taken. The person is instructed to take all of the tablets according to instructions provided on the pack. Blood samples are drawn each week at approximately the same time and the serum levels of 25(OH)D are determined. Serum levels of 25(OH)D can be determined by the Nichols method (catalog no. 40-2135; Nichols Institute Diagnostics). Within approximately one-month serum levels increase by at least about 60-70 nmole/L to a level of at least about 100 nmole/L and within about 4 months […] a level of about 120 nmole/L.

[1] abbreviates: adult female, baseline about 18 nmole/L, 250 μg (10,000 IU) tablet by mouth once a day, within about 4 months.
The mark [2] stands for this setting: adult female, baseline about 18 nmole/L, 250 μg (10,000 IU) tablet by mouth once a day, within approximately two months.
[3] abbreviates: adult male, baseline about 35 nmole/L, 250 μg (10,000 IU) tablet by mouth once every other day, within approximately one month.

Each structure is given as a SMILES string.

`C=C1CC[C@H](O)C/C1=C/C=C1\CCC[C@]2(C)[C@@H]([C@H](C)CCCC(C)C)CC[C@@H]12` [vitamin D3]: the “increase in serum level of 25(OH)D” value runs as follows: under setting [1], “at least 180 nmole/L”; under setting [2], “at least 100 nmole/L”; under setting [3], 60 to 70 nmol/L. In addition, the “serum level of 25(OH)D” value is, setting by setting: under setting [1], “at least 200 nmole/L”; under setting [2], “at least 120 nmole/L”; (adult male, baseline about 25 nmole/L, 250 μg (10,000 IU) tablet by mouth once a week, within approximately two months) “at least 40 nmole/L”; (adult male, baseline about 35 nmole/L, 250 μg (10,000 IU) tablet by mouth once every other day, within about 4 months) “about 120 nmole/L”; under setting [3], “at least 100 nmole/L”.
